# Results: the Kinase Knowledgebase extract (Sharma et al. 2016)
# Molecular target: PIK3CG (UniProt P48736)
# Assay: Inhibition of PIK3CG Kinase Activity
# PIK3CG, sequence (P48736 whole entry, looked up): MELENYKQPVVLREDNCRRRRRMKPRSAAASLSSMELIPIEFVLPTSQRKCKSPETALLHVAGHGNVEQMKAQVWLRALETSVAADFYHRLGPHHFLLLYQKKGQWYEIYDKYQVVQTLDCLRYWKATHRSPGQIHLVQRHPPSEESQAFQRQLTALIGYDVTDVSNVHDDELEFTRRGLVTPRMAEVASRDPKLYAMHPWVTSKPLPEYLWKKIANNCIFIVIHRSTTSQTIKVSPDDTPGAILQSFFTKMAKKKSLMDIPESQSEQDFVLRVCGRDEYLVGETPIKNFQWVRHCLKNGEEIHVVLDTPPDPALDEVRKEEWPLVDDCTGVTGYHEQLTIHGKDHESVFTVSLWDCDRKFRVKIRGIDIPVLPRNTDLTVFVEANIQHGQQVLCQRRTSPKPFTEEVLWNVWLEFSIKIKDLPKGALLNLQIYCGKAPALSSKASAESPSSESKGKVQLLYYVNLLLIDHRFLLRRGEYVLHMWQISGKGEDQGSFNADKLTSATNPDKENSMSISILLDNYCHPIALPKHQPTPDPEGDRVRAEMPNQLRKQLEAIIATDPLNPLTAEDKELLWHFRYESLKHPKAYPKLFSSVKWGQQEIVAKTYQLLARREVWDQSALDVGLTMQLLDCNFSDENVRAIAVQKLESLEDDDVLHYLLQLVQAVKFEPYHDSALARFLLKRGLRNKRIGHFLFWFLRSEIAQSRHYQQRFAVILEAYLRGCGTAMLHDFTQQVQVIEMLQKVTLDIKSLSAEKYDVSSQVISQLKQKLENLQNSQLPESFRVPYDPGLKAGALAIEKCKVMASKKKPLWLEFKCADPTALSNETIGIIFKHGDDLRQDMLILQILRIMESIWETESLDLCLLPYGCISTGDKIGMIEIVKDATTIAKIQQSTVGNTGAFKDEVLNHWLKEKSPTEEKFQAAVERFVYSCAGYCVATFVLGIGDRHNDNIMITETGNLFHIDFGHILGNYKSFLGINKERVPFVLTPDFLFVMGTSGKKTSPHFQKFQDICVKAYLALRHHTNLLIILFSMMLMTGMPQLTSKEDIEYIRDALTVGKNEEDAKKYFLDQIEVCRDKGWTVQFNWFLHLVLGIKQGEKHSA
row,SMILES,IC50 [nM]
1,CC1CC(C)CN(CCCN2C(=O)COc3c(F)cc(C=C4SC(=S)NC4=O)cc32)C1 (stereo not given),18.5
2,CC(C)(C)OC(=O)N1CCC(C(=O)CN2C(=O)COc3ccc(C=C4SC(=S)NC4=O)cc32)CC1,3180
3,CC(C)(C)c1cc(C(C)(C)C)nc(CN2C(=O)COc3c(F)cc(C=C4SC(=S)NC4=O)cc32)n1,1240
4,CC(C)(C)c1cc(O)cc(CN2C(=O)COc3ccc(C=C4SC(=S)NC4=O)cc32)c1,22
5,COc1ccc(CCCN2C(=O)COc3ccc(C=C4SC(=O)NC4=O)cc32)cc1,18
6,O=C1NC(=S)SC1=Cc1cc(F)c2c(c1)N(CCCN1CCOCC1)C(=O)CO2,55
7,CCN1C(=O)COc2ccc(C=C3SC(=S)NC3=O)cc21,42
8,CC(C)(C)c1cc(C(C)(C)C)nc(CN2C(=O)COc3ccc(C=C4SC(=S)NC4=O)cc32)n1,2070
9,CCOC(=O)N1CCC(Cc2ccc(CN3C(=O)COc4ccc(C=C5SC(=S)NC5=O)cc43)cc2)CC1,52
10,CCOC(=O)N1CCC(Cc2ccc(CN3C(=O)COc4ccc(C=C5SC(=O)NC5=O)cc43)cc2)CC1,32

# These reach a lower IC50. Values come first.
row,IC50 [nM],SMILES
1,16,CN1C(=O)COC2C=CC(C=C3OC(=S)NC3=O)=CC21 (stereo not given)
2,5,CC(C)(C)c1cc(CN2C(=O)COc3c(F)cc(C=C4SC(=S)NC4=O)cc32)cc(C(C)(C)O)c1
3,2,O=C1NC(=S)SC1=Cc1cc(F)c2c(c1)N(Cc1ccc(F)c(Cl)c1)C(=O)CO2
4,14,O=C1NC(=S)SC1=Cc1ccc2c(c1)N(CCc1ccc(C(F)(F)F)cc1C(F)(F)F)C(=O)CO2
5,2,O=C1NC(=S)SC1=Cc1ccc2c(c1)N(CC1CCCCC1)C(=O)CO2
